This note sets out measurements from US20130042333A1, “MARKERS FOR CANCER PROGNOSIS AND THERAPY AND METHODS OF USE” (priority 2011, published 2013).

For test [1], the system named is TC301 colorectal cancer xenograft. Briefly: Tumor regression-regrowth assay, TC301 xenograft. It counts as in vivo, human tumor in immunodeficient mice. Conditions: I 40 mg/kg, x1 cycle. An excerpt:
(§1) Tumor xenografts were generated by direct subcutaneous grafting into immunodeficient mice of human tumor surgical samples with informed written consent of the patients and maintained by serial transplantation. […] They are thus clinically relevant tumor models, as opposed to xenografts produced from tumor cell lines that have been obtained by in vitro culture and often passaged for many years (Fiebig, H. H. et al. Eur J Cancer 40, 802-820, 2004; Marangoni E., Vincent-Salomon A., Auger N. et al. Clin Cancer Res. 2007 Jul. 1; 13:3989-98).
Chemotherapeutic drugs were administered by intraperitoneal route according to the following doses and schedules: adriamycin, 2 mg/kg, q3wk (Doxorubicin®, Teva Pharmaceuticals, France) and Cyclophosphamide, 100 mg/kg, q3wk (Endoxan®, Baxter, France). […] Etoposide 12 mg/kg, qdx3. Ifosfamide 90 mg/kg, qdx3. bPARP inhibitor (AZD2281, Sequoia Research Products, UK) at 50 mg/kg (ip; qdx14). A second treatment cycle was performed with PARP inhibitor at 50 mg/kg (ip qdx5) during the nodule phase. Other pharmacological inhibitors are tested and administrated at the nodule phase: JAK1/2 Inhibitor (CP-690550) at 15 mg/kg (po qdx14), Epigallocatechin gallate (ECGC) (Sequoia Research Products, UK) at 30 mg/kg (ip qdx28), HDAC inhibitor (Trichostatine A), Retinoic acid at 50 mg/kg (ip qdx28) (Sigma-Aldrich, France). Breast tumor xenograft models were transplanted into 5-week old female Swiss nude mice, as described above, one tumor being transplanted into 5-10 recipients. When tumors reached a volume of 60-250 mm3, mice were individually identified and randomly assigned to the control or treated groups (12 to 20 mice per group). Tumor volume was evaluated by measuring two perpendicular diameters of the tumor, with a calliper, biweekly during the treatment period and once a week during the follow-up period. The formula TV (mm3)=[length (mm)×width (mm)2]/2 was used, where the length and the width were the longest and the shortest diameters of the tumor, respectively. All animals were weighted biweekly during the treatment period and the follow-up period. Mice were ethically sacrificed when the tumor volume reached 2000 mm3 Individual tumor growth delays (TGD) is calculated as the time in days required for individual tumors to reach 3- to 5-fold the initial median tumor volume. The tumor growth delay index (TGDI) is calculated as the median growth delay in the treated group divided by the median growth delay in the control group. The percentage ratio between the mean tumor volume of a treated group (T) and the mean tumor volume of the control group (C) is calculated. […]

In test [2] the test system is 21 genes implicated in IFN/Stat pathway. Briefly: Real-time quantitative RT-PCR of the 21-gene IFN/Stat signature in tumor xenografts after chemotherapy. Type of test: in vivo, human tumor in immunodeficient mice. Conditions: colorectal tumor xenograft (TC301). The procedure:
Samples were allocated for histology, microdissection and RNA analyses.
Total RNA amount was measured using the Nanodrop (ND1000, ThermoFisher) and RNA quality was assessed with the Agilent 2100 Bioanalyzer onto RNA NanoChip (Agilent Technology, Massy, France). Three samples from each condition were pooled. Two μg of total RNA were reverse-transcribed with the First strand cDNA synthesis kit (Roche Applied Science, Switzerland) according to manufacturer's instructions. For the priming method, a combination of ¾ random hexamer primers and ¼ anchored-oligo(dT)18 primers was used to avoid 3′-prime bias in cDNAs. qPCR analyses of gene transcripts was done with 5 ng of RNA for each reaction. Three housekeeping genes were used as references for relative quantification of target genes expression. […]
Validation of the microarray gene and microRNA expression data was performed by qPCR using primers specific for human sequences (eg. non-cross-reactive with murine sequences). The effect of chemotherapy on the activation of 21 genes implicated in IFN/Stat pathway (IFIT1, IFITM1, IRF9, IFI6, IFI44, IFI44L, OAS1, OAS2, LAMP3, MX1, PARP9, PARP12, SAMD9, SAMD9L, BST2, DDX60, CLDN1, STAT1, STAT2, UBE2L6, ZNFX1) and two miRNA (miR-142-3p and miR150) was analyzed in responder versus non-responder tumor models. […]
(Xenograft models place foreign cells or tissue in a host animal.)

For test [3], the system named is Stat1 (total, phospho-Tyr701, phospho-Ser727), Ifi27, Ifi44, Lcn2, Oas1. Conditions: T330 breast cancer xenograft; after chemotherapy; compared with A/C combination. Here is the method: (§2) Tumors were collected from 5 independent mice at different time points: prior to treatment (=controls with volume<200 mm3); post-treatment residual tumors (=nodules with volume<32 mm3 until minimal palpation); recurrent tumors (=regrowth with volume>62.5 mm3) Tumors or nodules were processed for (1) FFPE (formalin-fixed paraffin-embedded) or for (2) snap frozen samples: samples were cut into 3-4 mm pieces (at least 3 fragments) and snap-frozen in liquid nitrogen, then transferred to −80° C. for storage. Samples were allocated for histology, microdissection and RNA analyses.

The test system of test [4] is HBCx-14 breast tumor xenograft. Conditions: A/C 2/100 or C 100 mg/kg, x2 cycles.
From the text: as §1
Chemotherapeutic drugs were administered by intraperitoneal route according to the following doses and schedules: adriamycin, 2 mg/kg, q3wk (Doxorubicin®, Teva Pharmaceuticals, France) and Cyclophosphamide, 100 mg/kg, q3wk (Endoxan®, Baxter, France). Irinotecan (Campto®, Pfizer Holding France), 50 mg/kg, q4dx4. Etoposide 12 mg/kg, qdx3. Ifosfamide 90 mg/kg, qdx3. bPARP inhibitor (AZD2281, Sequoia Research Products, UK) at 50 mg/kg (ip; qdx14). A second treatment cycle was performed with PARP inhibitor at 50 mg/kg (ip qdx5) during the nodule phase. Other pharmacological inhibitors are tested and administrated at the nodule phase: JAK1/2 Inhibitor (CP-690550) at 15 mg/kg (po qdx14), Epigallocatechin gallate (ECGC) (Sequoia Research Products, UK) at 30 mg/kg (ip qdx28), HDAC inhibitor (Trichostatine A), Retinoic acid at 50 mg/kg (ip qdx28) (Sigma-Aldrich, France). Breast tumor xenograft models were transplanted into 5-week old female Swiss nude mice, as described above, one tumor being transplanted into 5-10 recipients. When tumors reached a volume of 60-250 mm3, mice were individually identified and randomly assigned to the control or treated groups (12 to 20 mice per group). Tumor volume was evaluated by measuring two perpendicular diameters of the tumor, with a calliper, biweekly during the treatment period and once a week during the follow-up period. The formula TV (mm3)=[length (mm)×width (mm)2]/2 was used, where the length and the width were the longest and the shortest diameters of the tumor, respectively. All animals were weighted biweekly during the treatment period and the follow-up period. Mice were ethically sacrificed when the tumor volume reached 2000 mm3 Individual tumor growth delays (TGD) is calculated as the time in days required for individual tumors to reach 3- to 5-fold the initial median tumor volume. The tumor growth delay index (TGDI) is calculated as the median growth delay in the treated group divided by the median growth delay in the control group. The percentage ratio between the mean tumor volume of a treated group (T) and the mean tumor volume of the control group (C) is calculated.
as §2
Three categories of responders were defined based on the TGDI and T/C values.

For `CCc1c2c(nc3ccc(OC(=O)N4CCC(N5CCCCC5)CC4)cc13)-c1cc3c(c(=O)n1C2)COC(=O)[C@]3(O)CC` [I, Irinotecan], in test [1], the “% Nodules” value was 43%, the “% Tumor Relapse” value stood at 100%, the “Median Nodule Apparition Time” value was determined as 26 and the “Median Time of Relapse” value is on record as 18. For the same compound, in test [2], the “expression of IFN/Stat gene signature in residual nodules (qPCR)” value is reported as “gene expression was globally increased”.
In the case of `O=P1(N(CCCl)CCCl)NCCCO1` (stereo not shown) [C, Cyclophosphamide], the “total and phosphorylated Stat1 protein (western blotting)” value in test [3] is “same increase in Stat 1 protein amount and phosphorylation level”. Further, in test [4], the “% Nodules” value worked out at 100%, the “% Tumor Relapse” value came to 67%, the “Median Nodule Apparition Time” value is 11 and the “Median Time of Relapse” value turned out to be 53. Further, in test [4], the “T/C % D21” value is recorded as 2%, the TGDI came to 6.66 and the “median TGD × 5” value stood at 82.00 days.
